What all share (parameters): key: 0 = no effect, 10 = maximum effect; letter = response symbol
One test relates to bush bean. The test can be described thus: Test A post-emergence. Format: in vivo, bush beans.
Test [1] deals with morningglory. Put plainly: Test A post-emergence. Format: in vivo, Ipomoea spp. The method, boiled down: (§1)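 Seeds and tubers were treated preemergence in a growth medium with compound in a nonphytotoxic solvent, against untreated controls; emerged plants such as two-leaf barnyardgrass and five-leaf cotton were sprayed postemergence, against solvent-sprayed controls. After sixteen days in a greenhouse, response was rated visually from 0 to 10.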

For test [2], the system named is cocklebur. The test can be described thus: Test A post-emergence. It is filed as in vivo, Xanthium spp. The method in brief:
as §1

For test [3], the system named is cassia. The test can be described thus: Test A post-emergence. Format: in vivo, Cassia tora. The method in brief: as §1
The next test has as its system nutsedge. Put plainly: Test A post-emergence. Format: in vivo, Cyperus rotundus. The method, boiled down: as §1
For test [4], the system named is crabgrass. The test can be described thus: Test A post-emergence. It is filed as in vivo, Digitaria spp. The method, boiled down: as §1
Test [5] has as its system barnyardgrass. The test can be described thus: Test A post-emergence. Format: in vivo, Echinochloa crusgalli. The method in brief: as §1
The test system of test [6] is wild oats. Put plainly: Test A post-emergence. Format: in vivo, Avena fatua. The method, boiled down:
as §1

The subject of another test is corn. The test can be described thus: Test A post-emergence. Format: in vivo. The method, boiled down: as §1
In the next test the test system is cotton. Put plainly: Test A post-emergence. It is filed as in vivo. The method in brief: as §1
For test [7], the system named is rice. Put plainly: Test A post-emergence. It is filed as in vivo. The method in brief:
as §1

Test [8] concerns sorghum. The test can be described thus: Test A post-emergence. It is filed as in vivo. The method in brief: as §1
For test [9], the system named is soybean. Put plainly: Test A post-emergence. It is filed as in vivo. The method in brief: as §1
For test [10], the system named is wheat. The test can be described thus: Test A post-emergence. Format: in vivo. The method in brief: as §1
Test [11] deals with morningglory. The test can be described thus: Test A pre-emergence. The following applies: 0.4 kg/ha. It is filed as in vivo, Ipomoea spp. The method, boiled down:
as §1

For test [12], the system named is cassia. The test can be described thus: Test A pre-emergence. The conditions noted are these: 0.4 kg/ha. Format: in vivo, Cassia tora. The method, boiled down: as §1
Test [13] relates to crabgrass. Put plainly: Test A pre-emergence. Format: in vivo, Digitaria spp. The following applies: 0.4 kg/ha. From the text: (§2) The activity of these compounds was discovered in a number of greenhouse and field tests. The ratings are based on a numerical scale extending from 0=no effect, to 10=maximum effect. The accompanying descriptive symbols have the following meanings:
(§3) Seeds of crabgrass (Digitaria spp.), barnyardgrass (Echinochloa crusgalli), wild oats (Avena fatua), cassia (Cassia tora), morningglory (Ipomoea spp.), cocklebur (Xanthium spp.), sorghum, corn, soybean, rice, wheat and nutsedge tubers (Cyperus rotundus) were planted in a growth medium and treated preemergence with a nonphytotoxic solvent solution of the compounds of Table XII. Other batches of seeds and tubers for all of the foregoing weed and crop plants were planted at the same time as controls. The control plantings were untreated; i.e., neither any compound nor any solvent was applied. At the same time, cotton having five leaves (including cotyledonary ones), bush beans with the third trifoliate leaf expanding, crabgrass with two leaves, barnyardgrass with two leaves, wild oats with two leaves, cassia with three leaves (including cotyledonary ones), morningglory with four leaves (including the cotyledonary ones), cocklebur with four leaves (including the cotyledonary ones), sorghum with four leaves, corn with four leaves, soybean with two cotyledonary leaves, rice with three leaves, wheat with one leaf, and nutsedge with three-five leaves were sprayed with a nonphytotoxic solvent solution of the compounds of Table XII. Other groups of all the same weed and crop plants were sprayed with the same nonphytotoxic solvent so as to provide control plants. Preemergence and postemergence treated plants and controls were maintained in a greenhouse for sixteen days, then all treated plants were compared with their respective controls and rated visually for response to treatment.

Test [14] has as its system wild oats. Put plainly: Test A pre-emergence. It is filed as in vivo, Avena fatua. The conditions noted are these: 0.4 kg/ha.
Description: as §2, §3

Test [15] deals with rice. The test can be described thus: Test A pre-emergence. It is filed as in vivo. The conditions noted are these: 0.4 kg/ha. The method, boiled down:
as §1

Test [16] has as its system sorghum. The test can be described thus: Test A pre-emergence. Format: in vivo. The following applies: 0.4 kg/ha. The method in brief:
as §1

Test [17] relates to soybean. The test can be described thus: Test A pre-emergence. Format: in vivo. The following applies: 0.4 kg/ha. The method in brief:
as §1

Test [18] concerns wheat. Put plainly: Test A pre-emergence. It is filed as in vivo. The following applies: 0.4 kg/ha. The method in brief: as §1
Test [19] has as its system cocklebur. Put plainly: Test A pre-emergence. The following applies: 0.4 kg/ha. Format: in vivo, Xanthium spp. The method in brief: as §1
In test [20] the test system is barnyardgrass. Put plainly: Test A pre-emergence. Format: in vivo, Echinochloa crusgalli. The following applies: 0.4 kg/ha. The method, boiled down:
as §1

With `COC(=O)c1ccccc1S(=O)(=O)NC(=O)Nc1nc(C)cc(C)n1` [drawing 412], the response rating in the test with bush bean (0.4 kg/ha) is on record as 9C; in the test on bush bean (2 kg/ha), 9C; with morningglory [1] (0.4 kg/ha), 10C; in the test with morningglory [1] (2 kg/ha), 10C; in the test on cocklebur [2] (0.4 kg/ha), 10C; with cocklebur [2] (2 kg/ha), 9C. Besides, the response rating in the test on cassia [3] (0.4 kg/ha), with cassia [3] (2 kg/ha), in the test with nutsedge (0.4 kg/ha), with nutsedge (2 kg/ha), with crabgrass [4] (0.4 kg/ha) and with crabgrass [4] (2 kg/ha) was 9C each time. Further, the response rating in the test with barnyardgrass [5] (0.4 kg/ha) is 10C; with barnyardgrass [5] (2 kg/ha), 10C; in the test with wild oats [6] (0.4 kg/ha), 9C; in the test on wild oats [6] (2 kg/ha), 9C; in the test on corn (0.4 kg/ha), 9C; in the test on corn (2 kg/ha), 9C. Moreover, the response rating is 9C in the test on cotton (0.4 kg/ha); 9C in the test on cotton (2 kg/ha); 10C in the test with rice [7] (0.4 kg/ha); 10C in the test on rice [7] (2 kg/ha); 9C in the test on sorghum [8] (0.4 kg/ha); 10C in the test with sorghum [8] (2 kg/ha). The response rating in the test with soybean [9] (0.4 kg/ha) amounted to 9C; in the test with soybean [9] (2 kg/ha) it was 6C; in the test with wheat [10] (0.4 kg/ha), 9C; with wheat [10] (2 kg/ha) it was 9C.
Turning to `COC(=O)c1ccccc1S(=O)(=O)NC(=O)Nc1nc(OC)cc(OC)n1` [drawing 414], the response rating is given as 9C in the test with bush bean (0.4 kg/ha); 10C in the test on morningglory [1] (0.4 kg/ha); 9C with cocklebur [2] (0.4 kg/ha); 9C in the test with cassia [3] (0.4 kg/ha); 10C with nutsedge (0.4 kg/ha); 9C in the test with barnyardgrass [5] (0.4 kg/ha). The response rating with wild oats [6] (0.4 kg/ha) was found to be 9C; in the test on corn (0.4 kg/ha), 9C; in the test with cotton (0.4 kg/ha) it was 9C; in the test on rice [7] (0.4 kg/ha), 8C; in the test on sorghum [8] (0.4 kg/ha), 9C; in the test with soybean [9] (0.4 kg/ha) it was 9C. This molecule registered a response rating with wheat [10] (0.4 kg/ha) of 9C.
On to `COC(=O)c1ccccc1S(=O)(=O)NC(=O)Nc1nc(C)nc(OC)n1` [drawing 415], for which the response rating in the test on bush bean (0.4 kg/ha) was determined as 9C; with morningglory [1] (0.4 kg/ha), 10C; with cocklebur [2] (0.4 kg/ha), 9C; in the test with nutsedge (0.4 kg/ha), 9C; in the test with crabgrass [4] (0.4 kg/ha) it was 10C; in the test with barnyardgrass [5] (0.4 kg/ha), 10C. The response rating in the test with wild oats [6] (0.4 kg/ha) was 10C; in the test with corn (0.4 kg/ha) it was 10C; in the test on cotton (0.4 kg/ha) it was 9C; in the test with rice [7] (0.4 kg/ha) it was 10C; in the test with sorghum [8] (0.4 kg/ha), 10C; with soybean [9] (0.4 kg/ha) it was 9C. For the same molecule, the response rating in the test with wheat [10] (0.4 kg/ha) worked out at 10C.
Take `CCOC(=O)c1ccccc1S(=O)(=O)NC(=O)Nc1nc(OC)cc(OC)n1` [drawing 441]: the response rating in the test on morningglory [1] (2 kg/ha) is reported as 10C; in the test on cocklebur [2] (2 kg/ha), 9C; with cassia [3] (2 kg/ha), 9C; in the test with nutsedge (2 kg/ha), 9C; in the test with crabgrass [4] (2 kg/ha) it was 9C; with barnyardgrass [5] (2 kg/ha), 10C. Also, the response rating came to 9C in the test on wild oats [6] (2 kg/ha); 9C in the test with corn (2 kg/ha); 9C in the test with cotton (2 kg/ha); 9C in the test with rice [7] (2 kg/ha); 10C in the test with sorghum [8] (2 kg/ha); 9C with wheat [10] (2 kg/ha).
As to `COc1cc(C)nc(NC(=O)NS(=O)(=O)c2ccccc2C(=O)OCCOCCOCCCl)n1` [drawing 448], the response rating was 9C with bush bean (0.4 kg/ha); 10C in the test on morningglory [1] (0.4 kg/ha); 9C in the test with cocklebur [2] (0.4 kg/ha); 9C in the test on cassia [3] (0.4 kg/ha); 10C with barnyardgrass [5] (0.4 kg/ha); 9C with wild oats [6] (0.4 kg/ha). Also, the response rating turned out to be 9C in the test on cotton (0.4 kg/ha), 8C with rice [7] (0.4 kg/ha), 8C in the test on soybean [9] (0.4 kg/ha) and 9C in the test with wheat [10] (0.4 kg/ha).
On to `COC(=O)c1ccccc1S(=O)(=O)NC(=O)Nc1nc(C)nc(N(C)C)n1` [drawing 472], for which the response rating in the test with bush bean (0.4 kg/ha) worked out at 9C; with morningglory [1] (0.4 kg/ha), 10C; in the test on cocklebur [2] (0.4 kg/ha) it was 9C; with cassia [3] (0.4 kg/ha), 9C; in the test on nutsedge (0.4 kg/ha), 8G; in the test on barnyardgrass [5] (0.4 kg/ha), 10C. The response rating in the test on wild oats [6] (0.4 kg/ha) came out at 9C; in the test on corn (0.4 kg/ha), 9C; with cotton (0.4 kg/ha), 9C; in the test with rice [7] (0.4 kg/ha) it was 10C; in the test with sorghum [8] (0.4 kg/ha), 10C; in the test with soybean [9] (0.4 kg/ha), 9C. Also, in the test with wheat [10] (0.4 kg/ha), the response rating came out at 9C.
Take `COC(=O)c1cc(F)ccc1S(=O)(=O)NC(=O)Nc1nc(C)nc(OC)n1` [drawing 517]: the response rating in the test on morningglory [11] was determined as 9G; in the test with cassia [12], 9G; in the test with crabgrass [13] it was 5G; in the test on wild oats [14] it was 2G; in the test on rice [15] it was 9H; in the test on sorghum [16], 9G. Further, the figures for the response rating in the test on soybean [17] and with wheat [18] were 9H and 0, respectively.
`COC(=O)c1cc(Cl)c(Cl)cc1S(=O)(=O)NC(=O)Nc1nc(C)cc(OC)n1` [drawing 519]: the response rating in the test with morningglory [11] is recorded as 8G; in the test on cocklebur [19], 8G; with cassia [12], 0; in the test on crabgrass [13] it was 2G; in the test on barnyardgrass [20], 9G; in the test on wild oats [14], 4G. For the same molecule, the response rating came to 9H in the test with rice [15] and 5G in the test with wheat [18].
In the case of `COC(=O)c1cc([N+](=O)[O-])ccc1S(=O)(=O)NC(=O)Nc1nc(C)cc(OC)n1` [drawing 529], the response rating is on record as 9G in the test with morningglory [11]; 9G in the test with cocklebur [19]; 9G in the test with cassia [12]; 9H in the test on rice [15]; 9H in the test on soybean [17]; 9G in the test on wheat [18].
`CCCCCCOC(=O)c1ccccc1S(=O)(=O)NC(=O)Nc1nc(C)cc(COC)n1` [drawing 538]: the response rating stood at 0 in the test on morningglory [11]; 0 in the test with cocklebur [19]; 0 in the test with cassia [12]; 0 in the test with crabgrass [13]; 2G in the test with barnyardgrass [20]; 0 in the test on wild oats [14]. Further, the response rating in the test with rice [15] was 8H; in the test with sorghum [16], 3G; with soybean [17], 0; with wheat [18] it was 0.
